For assay [1], the system named is Epidermophyton floccosum. The assay is described as follows: Antifungal activity against Epidermophyton floccosum after 7 days by tube dilution method. As to conditions: 168 h. In kind it is functional.
Assay [2] concerns Pleurotus ostreatus. The assay is described as follows: Antifungal activity against Pleurotus ostreatus after 7 days by tube dilution method. In kind it is functional. The settings on record: 168 h.
For assay [3], the system named is Shigella boydii. Description: Antibacterial activity against Shigella boydii by agar well diffusion method. The class given is functional, organism-based. For orientation: Agar diffusion results depend on both activity and mobility in agar.
For assay [4], the system named is Corynebacterium diphtheriae. Description: Antibacterial activity against Corynebacterium diphtheriae by agar well diffusion method. The class given is functional, organism-based.
Assay [5] relates to Staphylococcus aureus. Description: Antibacterial activity against Staphylococcus aureus by agar well diffusion method. In kind it is functional, organism-based.
Assay [6] concerns Escherichia coli. The assay is described as follows: Antibacterial activity against Escherichia coli by agar well diffusion method. In kind it is functional, organism-based.
Assay [7] has as its system Enterococcus faecalis. Description: Antibacterial activity against Streptococcus faecalis by agar well diffusion method. In kind it is functional, organism-based.
In assay [8] the test system is Salmonella enterica subsp. enterica serovar Typhi str. CT18. The assay is described as follows: Antibacterial activity against Salmonella typhi by agar well diffusion method. In kind it is functional, organism-based.

Drawing on ChEMBL document CHEMBL1159292, “New antifungal bithienylacetylenes from Blumea obliqua” (1995), this text covers MIC and Activity for 3 compounds.

Values after ≈ are worked out from the molar mass of the structure shown. Active and inactive are the calls of the source. No cut-off for these calls is given here.

Regarding `COC1=CC(=O)C[C@@H](C)[C@]12Oc1c(Cl)c(OC)cc(OC)c1C2=O` [GRISEOFULVIN], the MIC in assay [1] and in assay [2] was 250 µg/mL (≈ 709 µM) each time.

`C=CC#Cc1ccc(-c2ccc(COC(=O)CC(C)C)s2)s1`: the MIC in assay [1] and in assay [2] was 200 µg/mL (≈ 605 µM) each time.

As for `Cc1ccc(-c2ccc(C#CCCOC(=O)CC(C)C)s2)s1`, the MIC in assay [1] and in assay [2] was 200 µg/mL (≈ 602 µM) throughout. Moreover, the result in assay [3], in assay [4], in assay [5], in assay [6], in assay [7] and in assay [8] was Active.

In general, MIC refers to the least concentration at which growth counts as inhibited. Read a high MIC as a need for much substance.
